Experimental data as given in US20240199623A1 (ILDONG PHARMACEUTICAL CO., LTD., priority 2020, published 2024).
Values after ≈ are worked out from the molar mass of the structure shown.

What was measured:
[1] = Phosphate-buffered saline (PBS) solubility of compounds; type: physicochemical; conditions: aqueous buffer, thermodynamic from solid, PBS pH 7.5, 0.5 mg/mL, vortexed 90 min, filtered, LC-MS/MS, read-out: Solubility Range
Protocol: PBS solutions (pH 7.5) were prepared according to the following compositions and stored at 4° C. Test compounds were dissolved in PBS (pH 7.5) at 0.5 mg/mL and vortexed for 90 min. The PBS solution was sequentially filtered through a 0.45, 1.2, […] syringe filter. Concentration of test compounds were determined using LC-MS/MS with appropriate dilution of the samples.

C57BL/6 female mice = assay: Scopolamine induced tear volume reduction model; type: in vivo, mouse; conditions: scopolamine-injected mice, ophthalmic solution topically on both eyes 3 times a day, phenol red thread; average if evaluated twice
Protocol: Seven-week old C57BL/6 female mice were used.
Scopolamine hydrobromide was purchased from Sigma Aldrich (Cat No. S0929), dissolved in saline, and sterilized prior to use.
Zone-Quick phenol red thread was obtained from Menicon.
The test compounds used in this experiment were dissolved in PBS containing 1% of surfactant.
Scopolamine (0.2 ml of 2.5 mg/mL solution) was injected subcutaneously 3 times a day to induce a decrease in the tear volume in the mouse. At the same time, the ophthalmic solution of test compounds or vehicle were topically administered onto both eyes 3 times a day. Tear volume was measured by phenol red thread before dosing (basal level) and 1 hour after the last administration of scopolamine and ophthalmic solution. The results were obtained by measuring the length of the phenol red thread turning red by tears. The schedule of study is expressed as FIG. 1.
If the test compound was evaluated twice, the average value was used.

human wild type-CFTR [2] = target: T1, human wild type-CFTR (Homo sapiens, UniProt P13569); assay: Short-circuit current measurement; type: cell-based; design: expressed in transfected cells; conditions: FRT cells expressing human wild type-CFTR; Forskolin 20 μM signal used as 100% activity; read-out: Short-circuit current measurement (EC50) Concentration range
Text: Forskolin (Tocris cat. #1099), CFTRinh-172 (Tocris cat. #3430), amphotericin B (Tocris cat. #6930), dimethyl sulfoxide (Sigma cat. #D4540), EVC4000 Multi-Channel V/I Clamp (World Precision Instruments, Sarasota, FL), PowerLab 4/35 (AD Instruments, Castle Hill, Australia), Labchart Pro 7, GraphPad Prism 5 (GraphPad Software, Inc.). Fisher rat thyroid (FRT) cells expressing human wild type-CFTR were provided by Dr. Alan Verkman (University of California, San Francisco) and grown in DMEM/F12 medium (1:1) supplemented with 10% FBS, 2 mM glutamine, 100 units/ml penicillin and 100 μg/ml streptomycin. Snapwell inserts containing CF TR-expressing FRT cells were mounted in Ussing chambers (Physiologic Instruments, San Diego, CA). […] Forskolin, test compounds, and CFTRinh-172 were added to the apical and basolateral bath solution. Apical membrane current and short-circuit current were measured with an EVC4000 Multi-Channel V/I Clamp (World Precision Instruments, Sarasota, FL) and recorded using PowerLab 4/35 (AD Instruments, Castle Hill, Australia). Data were collected and analyzed with ADInstruments acquisition software Labchart Pro 7 software. The sampling rate was 4 Hz.

human wild type-CFTR [3] = target: T1, human wild type-CFTR; assay: Cell-based YFP assay; design: expressed in transfected cells; host or cells: CHO-K1 (Chinese hamster ovary); conditions: CHO-K1 cells expressing human wild type-CFTR and YFP-H148Q/I152L; forskolin 20 μM = 100% activity; read-out: Cell-based YFP Assay (EC50) Concentration Range
Summary of the method: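 I⁻-driven YFP fluorescence quenching at 37 °C: 2 s baseline, addition of 140 mM iodide solution, then 14 s of readings at 0.4 s intervals. Cells were CHO-K1 expressing human wild-type CFTR plus YFP-H148Q/I152L. EC50 derived from averaged triplicates.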

T1 sequence (P13569 whole entry): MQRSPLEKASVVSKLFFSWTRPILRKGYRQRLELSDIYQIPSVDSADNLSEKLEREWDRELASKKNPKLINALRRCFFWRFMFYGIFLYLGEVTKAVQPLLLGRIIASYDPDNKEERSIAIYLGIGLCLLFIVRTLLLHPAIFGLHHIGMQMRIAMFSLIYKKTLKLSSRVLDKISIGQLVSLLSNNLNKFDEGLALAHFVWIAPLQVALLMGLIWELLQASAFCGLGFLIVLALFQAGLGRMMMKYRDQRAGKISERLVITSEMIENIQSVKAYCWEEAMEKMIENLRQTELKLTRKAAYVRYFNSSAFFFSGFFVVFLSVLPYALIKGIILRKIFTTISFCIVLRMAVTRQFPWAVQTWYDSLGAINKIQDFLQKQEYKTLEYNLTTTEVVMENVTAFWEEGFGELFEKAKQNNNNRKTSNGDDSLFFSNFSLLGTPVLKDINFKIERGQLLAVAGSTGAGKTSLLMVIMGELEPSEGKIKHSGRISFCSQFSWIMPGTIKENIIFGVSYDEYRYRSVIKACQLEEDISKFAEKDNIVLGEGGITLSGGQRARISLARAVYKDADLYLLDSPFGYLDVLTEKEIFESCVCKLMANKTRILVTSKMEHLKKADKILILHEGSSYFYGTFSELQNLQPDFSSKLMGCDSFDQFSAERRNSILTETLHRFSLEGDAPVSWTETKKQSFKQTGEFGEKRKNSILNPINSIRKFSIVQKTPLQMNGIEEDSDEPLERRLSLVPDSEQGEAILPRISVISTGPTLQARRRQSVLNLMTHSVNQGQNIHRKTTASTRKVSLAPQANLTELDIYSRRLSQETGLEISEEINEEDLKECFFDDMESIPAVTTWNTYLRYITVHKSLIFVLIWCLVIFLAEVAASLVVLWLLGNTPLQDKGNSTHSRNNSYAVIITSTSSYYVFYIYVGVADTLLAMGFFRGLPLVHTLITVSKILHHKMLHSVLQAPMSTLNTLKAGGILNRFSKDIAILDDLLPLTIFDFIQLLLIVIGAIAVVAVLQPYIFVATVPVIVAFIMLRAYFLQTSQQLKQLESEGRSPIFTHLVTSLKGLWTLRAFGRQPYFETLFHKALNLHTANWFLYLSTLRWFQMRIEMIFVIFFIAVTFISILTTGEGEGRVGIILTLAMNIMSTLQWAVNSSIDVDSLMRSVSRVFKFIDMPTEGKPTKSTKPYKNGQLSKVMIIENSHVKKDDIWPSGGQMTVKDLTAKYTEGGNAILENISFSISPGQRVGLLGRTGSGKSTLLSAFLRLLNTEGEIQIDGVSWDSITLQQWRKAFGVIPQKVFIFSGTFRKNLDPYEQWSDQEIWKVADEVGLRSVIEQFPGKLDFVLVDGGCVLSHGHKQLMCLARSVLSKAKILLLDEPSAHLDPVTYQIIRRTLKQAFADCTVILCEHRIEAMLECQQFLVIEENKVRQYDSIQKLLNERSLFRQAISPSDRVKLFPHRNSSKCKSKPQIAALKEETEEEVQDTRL

Compound	solubility at 90 min [1] [µg/mL]	Ratio of tear volume (test compound to vehicle) (C57BL/6 female mice)	EC50 (human wild type-CFTR [2]) [nM]	EC50 (human wild type-CFTR [3]) [nM]
COc1ccc(-c2ccnc3cc(C(=O)N4CCN(C(=O)c5c(F)c(F)c(F)c(F)c5F)[C@@H](C)C4)nn23)cc1OC [Compound 259, (S)-(7-(3,4-dimethoxyphenyl)pyrazolo[1,5-a]pyrimidin-2-yl) (3-methyl-4-(perfluorobenzoyl)piperazin-1-yl)methanone]	0.1 to 10 (≈ 0.174 to 17.4 µM)	0.94	200 to 2000	200 to 2000
CCOc1ccc(NC(=O)c2cc3nccc(-c4ccc(OC)c(OC)c4)n3n2)cc1 [Compound 3, 7-(3,4-dimethoxyphenyl)-N-(4-ethoxyphenyl)pyrazolo[1,5-a]pyrimidine-2-carboxamide]	< 0.1	1.20	< 200	< 200
COc1ccc(-c2ccnc3cc(C(=O)N[C@H]4CC[C@@H](C(=O)N5CCOCC5)CC4)nn23)cc1OC [Compound 72, 7-(3,4-dimethoxyphenyl)-N-((1S,4S)-4-(morpholine-4-carbonyl)cyclohexyl) pyrazolo[1,5-a]pyrimidine-2-carboxamide]	> 10	1.06	≥ 2000	200 to 2000
COC(=O)c1ccc(NC(=O)c2cc3nccc(-c4ccc(OC)c(OC)c4)n3n2)cc1F [Compound 141, methyl 4-(7-(3,4-dimethoxyphenyl)pyrazolo [1,5-a]pyrimidine-2-carboxamido)-2-fluorobenzoate]	< 0.1	1.34	< 200	< 200
COc1ccc(-c2ccnc3cc(C(=O)Nc4ccc(C(=O)O)cc4C)nn23)cc1OC [Compound 126, 4-(7-(3,4-dimethoxyphenyl)pyrazolo[1,5-a]pyrimidine-2-carboxamido)-3-methylbenzoic acid]	0.1 to 10 (≈ 0.231 to 23.1 µM)	0.97	≥ 2000	200 to 2000
COc1ccc(NC(=O)c2cc3nccc(-c4ccc(OC)c(OC)c4)n3n2)cc1 [Compound 6, 7-(3,4-dimethoxyphenyl)-N-(4-methoxyphenyl)pyrazolo[1,5-a]pyrimidine-2-carboxamide]	< 0.1	1.58	< 200	< 200
COc1ccc(-c2ccnc3cc(C(=O)Nc4ccc(N5CCC6(CC5)OCCO6)cc4)nn23)cc1OC [Compound 274, N-(4-(1,4-dioxa-8-azaspiro[4.5]decan-8-yl)phenyl)-7-(3,4-dimethoxyphenyl)pyrazolo [1,5-a]pyrimidine-2-carboxamide]	< 0.1	1.07	< 200	< 200
COc1ccc(-c2ccnc3cc(C(=O)Nc4ccc(NC(=O)CNC(=O)OC(C)(C)C)cc4)nn23)cc1OC [Compound 280, tert-butyl (2-((4-(7-(3,4-dimethoxyphenyl)pyrazolo [1,5-a]pyrimidine-2-carboxamido)phenyl)amino)-2-oxoethyl)carbamate]	< 0.1	1.32	< 200	< 200
COc1ccc(-c2ccnc3cc(C(=O)N4CCN(Cc5c(F)cccc5F)CC4)nn23)cc1OC [Compound 212, (4-(2,6-difluorobenzyl)piperazin-1-yl)(7-(3,4-dimethoxyphenyl)pyrazolo [1,5-a]pyrimidin-2-yl)methanone]	0.1 to 10 (≈ 0.203 to 20.3 µM)	1.43	≥ 2000	< 200
COC(=O)C12CC(NC(=O)c3cc4nccc(-c5ccc(OC)c(OC)c5)n4n3)(C1)C2 [Compound 36, methyl 3-(7-(3,4-dimethoxyphenyl)pyrazolo[1,5-a]pyrimidine-2-carboxamido)bicyclo[1.1.1]pentane-1-carboxylate]	0.1 to 10 (≈ 0.237 to 23.7 µM)	1.23	≥ 2000	200 to 2000
COc1ccc(-c2ccnc3cc(C(=O)NC45CCC(C(=O)N6CCOCC6)(CC4)CC5)nn23)cc1OC [Compound 186, 7-(3,4-dimethoxyphenyl)-N-(4-(morpholine-4-carbonyl)bicyclo[2.2.2]octan-1-yl)pyrazolo[1,5-a] pyrimidine-2-carboxamide]	> 10	1.05	200 to 2000	< 200
COc1ccc(-c2ccnc3cc(C(=O)NC45CCC(C(=O)O)(CC4)CC5)nn23)cc1OC [Compound 149, 4-(7-(3,4-dimethoxyphenyl)pyrazolo[1,5-a]pyrimidine-2-carboxamido)bicyclo[2.2.2]octane-1-carboxylic acid]	> 10	1.26	≥ 2000	200 to 2000
COc1ccc(-c2ccnc3cc(C(=O)Nc4ccc(C(=O)N5CCN(C(C)C)CC5)cc4)nn23)cc1OC [Compound 159, 7-(3,4-dimethoxyphenyl)-N-(4-(4-isopropylpiperazine-1-carbonyl)phenyl)pyrazolo[1,5-a]pyrimidine-2-carboxamide]	0.1 to 10 (≈ 0.189 to 18.9 µM)	2.11	200 to 2000	200 to 2000
COc1ccc(-c2ccnc3cc(C(=O)N[C@H]4CC[C@H](C(=O)OCCCN5CCOCC5)CC4)nn23)cc1OC [Compound 197, 3-morpholinopropyl (1r,4r)-4-(7-(3,4-dimethoxyphenyl)pyrazolo [1,5-a]pyrimidine-2-carboxamido)cyclohexane-1-carboxylate]		1.18	200 to 2000	200 to 2000
COc1ccc(-c2ccnc3cc(C(=O)Nc4ccc(N5CCN(C(=O)OC(C)(C)C)CC5)cc4)nn23)cc1OC [Compound 271, tert-butyl 4-(4-(7-(3,4-dimethoxyphenyl)pyrazolo [1,5-a]pyrimidine-2-carboxamido)phenyl) piperazine-1-carboxylate]	< 0.1	1.17	< 200	< 200
COc1ccc(-c2ccnc3cc(C(=O)N[C@H]4CC[C@H](O)CC4)nn23)cc1OC [Compound 69, 7-(3,4-dimethoxyphenyl)-N-((1R,4R)-4-hydroxycyclohexyl)pyrazolo [1,5-a]pyrimidine-2-carboxamide]	> 10	0.76	≥ 2000	200 to 2000
COc1ccc(-c2ccnc3cc(C(=O)Nc4ccc(C(=O)N5CCN(C)CC5)cc4F)nn23)cc1OC [Compound 158, 7-(3,4-dimethoxyphenyl)-N-(2-fluoro-4-(4-methylpiperazine-1-carbonyl)phenyl)pyrazolo[1,5-a]pyrimidine-2-carboxamide]	< 0.1	1.40	< 200	< 200
COC(=O)c1ccc(NC(=O)c2cc3nccc(-c4ccc(OC)c(OC)c4)n3n2)cc1Cl [Compound 140, methyl 2-chloro-4-(7-(3,4-dimethoxyphenyl)pyrazolo[1,5-a]pyrimidine-2-carboxamido)benzoate]	< 0.1	1.48	< 200	< 200
COc1ccc(-c2ccnc3cc(C(=O)NC4CCCCC4)nn23)cc1OC [Compound 2, N-cyclohexyl-7-(3,4-dimethoxyphenyl)pyrazolo[1,5-a]pyrimidine-2-carboxamide]	< 0.1	1.40	200 to 2000	< 200
